Data on two compounds can be found in ChEMBL document CHEMBL5725797, “Heterocyclic compounds and their use as glycogen synthase kinase-3 inhibitors” (2018).

The target in this experiment is Glycogen synthase kinase-3 beta (Homo sapiens, UniProt P49841). The experiment can be described thus: Biochemical hGSK-3Beta Assay: Compounds were tested for their ability to inhibit human Glycogen Synthase Kinase-3 beta (hGSK-3β) to phosphorylate biotin-[…](pS)EDEEE. Compounds were incubated with 0.5 μCi 33P-ATP, 10 μM ATP, 0.0125 U hGSK-3β (Upstate cell signaling solutions) and 1 μM substrate (biotin-[…](pS)EDEEE) in 50 mM HEPES, 10 mM MgCl2, 100 mM Na3VO4, 1 mM DTT, 0.0075% Triton, 2% DMSO (total volume 50 μL) for 30 minutes at room temperature. The incubation was stopped by addition of an equal volume of 100 mM EDTA, 4M NaCl. 80 μL of this mixture was added to streptavidin-coated Flash-plates (PerkinElmer). Following a wash step, 33P incorporation was quantified on a MicroBeta microplate liquid scintillation counter (Perkin Elmer). IC50s were determined by fitting a sigmoidal dose-response curve to the counts obtained at the different concentrations in GraphPad Prism.
Chain of Glycogen synthase kinase-3 beta (P49841 whole entry): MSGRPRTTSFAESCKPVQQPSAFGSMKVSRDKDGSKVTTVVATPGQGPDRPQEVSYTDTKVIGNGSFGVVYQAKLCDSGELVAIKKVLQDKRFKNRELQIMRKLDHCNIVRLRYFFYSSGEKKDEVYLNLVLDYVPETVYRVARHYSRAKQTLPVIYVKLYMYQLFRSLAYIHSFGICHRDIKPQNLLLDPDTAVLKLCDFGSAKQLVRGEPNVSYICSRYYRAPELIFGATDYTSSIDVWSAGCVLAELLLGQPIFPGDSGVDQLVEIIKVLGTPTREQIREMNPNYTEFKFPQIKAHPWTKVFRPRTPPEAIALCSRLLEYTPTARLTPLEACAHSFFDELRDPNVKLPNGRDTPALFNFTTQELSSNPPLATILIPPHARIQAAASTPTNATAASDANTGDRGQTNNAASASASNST

pIC50: −log10 of the molar value.

With `N#Cc1ccc2c(c1)C(c1ccc3c(n1)CCCC3=O)C(=O)N2` (configuration not stated), the pIC50 was above 7.00. For `N#Cc1ccc2c(c1)C(c1ccc3c(n1)C(O)CCC3)C(=O)N2` (configuration not stated), the pIC50 was above 7.00.

A word on the pIC50: it is −log10 of the IC50, conventionally taken in molar units.
